# Results as given in US20260108496A1, “METHODS FOR REPROGRAMING EXHAUSTED T CELLS AND BOOSTING IMMUNE CHECKPOINT BLOCKADE THERAPY FOR CANCER” (Ohio State Innovation Foundation, priority 2022, published 2026).
# Tests used:
# human CD8+ T cells [1] = experiment: RNA-sequencing of human CD8+ T cells; type: cell-based
# Experimental: RNA was isolated using PicoPure™ RNA Isolation Kit (Applied Biosystems) from frozen cell pellets of human CD8+ T cells that were FACS-purified from days 0 (naïve), 7, and 28. Following the kit protocol. Partek Flow was used for RNA-seq analysis. In brief, pre-alignment QC/QA analysis was performed on the FASTQ files, followed by read alignment on human whole genome hg38 using STAR. The aligned reads were quantified to the hg38 RefSeq Transcripts 98 using the Quantify to annotation model on Partek and gene counts were filtered (exclude features where maximum <50.0). Filtered gene counts were normalized using median ratio for DESeq2 analysis to measure differential gene expression among different populations of CD8+ T cells. Differentially expressed genes (DEGs) were identified for genes showing fold change ≥2 and p-value 0.05.
# human CD8+ T cells [2] = experiment: BMP4 agonist treatment of human CD8+ T cells under chronic strong TCR stimulation; type: cell-based
# Excerpt: To determine whether activating the SMAD1/5-dependent pathway attenuates a progression of chronically stimulated T cells to dysfunction, we augmented SMAD1/5-signaling using SB4 (2-[[(4-Bromophenyl)methyl]thio]benzoxazole), as shown in the formula: […]
# SB4 is a selective small molecule BMP4 agonist (BMP4a) that stabilizes SMAD1/5 phosphorylation—in human CD8+ T cells under chronic strong TCR stimulation (FIG. 15a). […] CD39, CD103, and CD101 (FIG. 15e-i). Importantly. […] Taken together, these findings reveal a novel role for BMP4 signals in reversing exhaustion features and enhancing the survival of chronically stimulated CD8+ T cells.
# For “Weak TCR” stimulation, 30 ng/ml of purified monoclonal anti-human CD3 (clone: OKT3; BioLegend) was continuously added onto the seeded CBMCs to provide TCR stimulation plus natural costimulation via CD80/CD86 on Fc-expressing CBMCs that survive in the first few days. For “Strong TCR” stimulation setting, flat-bottom plates were coated with purified monoclonal anti-human CD3 (5 ug/ml) and anti-human CD28 (1 ug/ml) (clone: CD28.2; BioLegend) at 4° C. overnight, then CMBCs were isolated and seeded in complete T cell medium as described above on day 0. On day 7, viable CD8+ T cells were FACS-purified using the Sony MA900 cell sorter. Purified CD8+ T cells were then continuously stimulated in plates coated with anti-CD3 only (5 ug/ml). Media was replenished every 2-3 days, and cells were incubated at 37 C and 5% CO2 throughout the duration of the experiment. Human TGFβ1 (5 ng/ml, Peprotech) was added to the media starting on day 7. […] Vitamin C (100 μM, MedChemExpress LLC) was added to the media starting on day 21. For the acute TCR stimulation condition, anti-CD3 was no longer added to the media starting on day 7. For recovery experiments in FIG. 16 and FIGS. 22 and 26, CD8+ T cells were rested from TCR stimulation and TGFβ1 starting on day 28 for 7-14 days in T cell media containing recombinant human IL-15 only (10 ng/ml).
# (§1) On days 7, 14, 21, and 28 (and day 35 and 42 for recovery experiments), human CBMCs were stimulated with PMA/Ionomycin (Cell Stimulation Cocktail plus protein transport inhibitors, eBioscience) for 3 hours at 37° C., 5% CO2. Incubation was followed immediately by antibody intracellular staining for flow cytometry.
# Dysf. CD8+ T cells = experiment: reprogramming treatment of Dysf. (chronic TCR plus TGFβ1) human CD8+ T cells; type: cell-based
# Experimental: On day 7, viable CD8+ T cells were FACS-purified using the Sony MA900 cell sorter. Purified CD8+ T cells were then continuously stimulated in plates coated with anti-CD3 only (5 ug/ml). Media was replenished every 2-3 days, and cells were incubated at 37 C and 5% CO2 throughout the duration of the experiment. Human TGFβ1 (5 ng/ml, Peprotech) was added to the media starting on day 7. Treatment with RepSox (25 μM) and SB4 (10 μM) (MedChemExpress LLC) or vehicle control (DMSO, ThermoFisher) were added to the media starting on day 14 or 21. Vitamin C (100 μM, MedChemExpress LLC) was added to the media starting on day 21. For the acute TCR stimulation condition, anti-CD3 was no longer added to the media starting on day 7. For recovery experiments in FIG. 16 and FIGS. 22 and 26, CD8+ T cells were rested from TCR stimulation and TGFβ1 starting on day 28 for 7-14 days in T cell media containing recombinant human IL-15 only (10 ng/ml).
# as §1
# Human CBMCs from ex vivo stimulation experiments (acute or chronic TCR, and chronic TCR+TGFβ1) were labeled with 5(6)-Carboxyfluorescein diacetate N-succinimidyl ester (CFSE) (1 μM, Sigma) by staining in PBS for 7 minutes at room temperature, followed by quenching with 20% FBS. Proliferation was tracked on days 35 and 42 by assessing CFSE fluorescence via flow cytometry. Each peak of CFSE fluorescence signal represents one cell division cycle.
# B16-F10-LCMV-GP tumor = type: in vivo, C57BL/6 mice; details: therapy initiated after tumor development, i.p. every 2 days, through day 17
# human CD8+ T cells [3] = experiment: whole-genome bisulfite sequencing of human CD8+ T cells; type: cell-based
# Experimental: Human CD8+ T cells were sorted on days 0 (naïve), 7, and 28, and genomic DNA was extracted and bisulfite-treated to convert unmethylated cytosine to uracil residues using the EZ DNA Methylation-Direct Kit (Zymo). DNA libraries were prepared using Swift Accel-NGS® D Methyl-Seq DNA Library Kit according to the manufacturer's protocol. The libraries were purified by the AMPureXP Beads followed by QC using Qubit method, and the purified DNA was captured on an Illumina flow cell for cluster generation. Libraries were sequenced on the NovaSeq-S2 platform following the manufacturer's protocols. Sequencing data were aligned to the Hg38 genome using BSMAP. Adapter were trimmed from FASTQ sequences (trimglore) and mapped to the hg38 genome using the BSMAP v. 2.74 software. CpGs were extracted by the methratio.py in the BSMAP package. Differential analysis of CpG methylation among the datasets was determined with a Bayesian hierarchical model to detect regional methylation differences with at least three CpG site. Differentially methylated regions (DMRs) were identified using Bioconductor package DSS and custom R scripts with a threshold of 30% change in methylation ratio and P-value <0.01 with at least 10 reads per CpG site as a cutoff.
# [4] = test system: LCMV-specific CD8+ T cells; type: in vivo, C57BL/6 mice; details: treatment followed by anti-PD-L1
# P14 CD8 T cells = experiment: in-vitro co-culture of P14 CD8 T cells with CT2A-gp33 tumor cells (Example 1); type: cell-based, mouse
# Excerpt: To study their epigenetic (re)programming, we developed a novel in-vitro model of CD8 T cell exhaustion. First, we optimized conditions for in-vitro co-culture of gp33-expressing murine brain tumor cells (CT2A-gp33) and TCR transgenic gp33-specific CD8 T cells (P14 cells). We were able to enforce differentiation of anti-tumor CD8 T cells under their persistent TCR stimulation by repeated exposure to the tumor antigen and tumor-derived factors, such as TGFβ1. […] However, with prolonged exposure to the tumor antigen, the effector CD8 T cells progressively lose cytokine production and tumor killing activity (FIGS. 8A, 8B, and 8C).
# To assess the impact of TGFβ1 signaling on the progression of CD8 T cells toward dysfunction, we treated co-cultures with TGFβ1 or RepSox (also known as E-616452) (2-(3-(6-Methylpyridine-2-yl)-1H-pyrazol-4-yl)-1,5-naphthyridine) as shown in the formula: […]
# RepSox is a potent selective inhibitor of the TGFβ type 1 receptor (ALK5)—for 11 days after effector differentiation was complete (day 6).
# We also examined the impact of BMP-2/4 signaling on RepSox-treated P14 CD8 T cells. […] Taken together, our findings indicate that TGFβ1-signaling not only accelerates the development of T cell dysfunction, but also maintains silencing of lymphoid homing markers on CD8 T cells. Importantly, our findings support the feasibility of using this novel in-vitro model as a tractable tool that can guide our in-vivo work by providing first-line mechanistic studies.
# [5] = monotherapy, in the absence of TGFβ R1 blocker
smiles,measurement,setting,value
"Brc1ccc(CSc2nc3ccccc3o2)cc1 [SB4, 2-[[(4-Bromophenyl)methyl]thio]benzoxazole]","expression of genes regulating T cell co-stimulation, chemotaxis and stemness (CD28, FOSB, FCGR3A, CXCL8, POU2F2)",human CD8+ T cells [1]; Reprog.II versus Reprog.I,re-activated expression
same,"expression of exhaustion-associated molecules (PD-1, LAG3, CD39, CD103, CD101)",human CD8+ T cells [2]; day 21,reducing the expression
same,numbers of persistently stimulated CD8+ T cells,human CD8+ T cells [2]; day 21,rescued significantly higher numbers
same,proliferation activity (Ki67),human CD8+ T cells [2]; day 21,without increasing
same,polyfunctionality,"human CD8+ T cells [2]; day 21, treatment day 7-21, after PMA/Ionomycin",significantly increased
same,expression levels of terminal dysfunction molecules,Dysf. CD8+ T cells; in RepSox-treated Dysf. CD8+ T cells,further reducing
same,effector function of Dysf. CD8+ T cells,Dysf. CD8+ T cells; [5],not sufficient to restore
same,"expression levels of dysfunction-related molecules (PD-1, LAG3, CD101, CD103)",Dysf. CD8+ T cells; [5],significantly reduced
same,effector cytokine production,"Dysf. CD8+ T cells; sorted most dysfunctional subset, added to RepSox",further enhanced
same,tumor control,B16-F10-LCMV-GP tumor,modest tumor control
same,DNA methylation patterns in Dysf. CD8+ T cells,human CD8+ T cells [3]; combined with RepSox,more pronounced
same,dysfunctional CD8+ T cell responses during anti-PD-L1 treatment,[4],did not improve
"Cc1cccc(-c2n[nH]cc2-c2ccc3ncccc3n2)n1 [RepSox, 2-(3-(6-Methylpyridine-2-yl)-1H-pyrazol-4-yl)-1,5-naphthyridine]",expression of effector function-related and memory-related genes,"human CD8+ T cells [1]; TGFBR1 blockade alone, Dysf. CD8+ T cells, day 28",restored substantial expression levels
same,ACVR1 and ACVR2A expression,"human CD8+ T cells [1]; normalized RNA levels, chronic stimulation",increased expression
same,CD62L (L-selectin) expression,P14 CD8 T cells; P14 CD8 T cells,restored
same,levels of PD-1,P14 CD8 T cells; P14 CD8 T cells,maintained high levels
same,tumor killing activity,"P14 CD8 T cells; persistently stimulated P14 cells, treatment from day 6",preserved
same,"effector function (expression of IFNγ, T-bet and Gzmb)",P14 CD8 T cells; relative to Day 6-effector CD8 T cells,boosted the effector function
same,"effector molecules (IFNγ, TNFα, CD107a, T-bet)","Dysf. CD8+ T cells; RepSox alone, day 28",restored
same,"surface markers associated with terminal dysfunction (CD101, PD-1, LAG3)","Dysf. CD8+ T cells; RepSox alone, day 28",downregulated
same,effector cytokine production,"Dysf. CD8+ T cells; sorted most dysfunctional subset (CD107a low CD11a low), RepSox 2 weeks",significantly recovered
same,tumor control,B16-F10-LCMV-GP tumor,modest tumor control
same,DNA methylation patterns in Dysf. CD8+ T cells,"human CD8+ T cells [3]; RepSox alone, day 28",induced distinct methylation patterns
same,dysfunctional CD8+ T cell responses during anti-PD-L1 treatment,[4],did not improve
